Counter-ions that a name gives are not always drawn.

A word on the inhibition: it is the percentage by which the read-out fell short of the control.

One test relates to Angiotensin II (aortic blood vessel of a rabbit). As to the kind of experiment: Angiotensin II antagonistic effect, inhibition of A II-induced isometric tension change of isolated rabbit aortic blood vessel. The class given is cell-based. Conditions: Oryctolagus cuniculus, 0.25 h; Concn. of drug substance 10^-5 M; A II 4×10^-9 M; 15 minutes treatment; read-out: Potency of inhibition. As for the experimental part:
Angiotensin II (hereinafter referred to briefly as A II) antagonistic effect of the compound (I) of the present invention (aortic blood vessel of a rabbit). The blood-vessel preparation and reaction were done in accordance with the method as described in "European Journal of Pharmacology", vol. 18, pp. 316 (1972). While employing A II in the concentration of 4×10^-9M, the potency of inhibition was calculated by the following equation from changes in isometric tension of the blood vessel brought about by A II and that found after treatment with a test drug substance for 15 minutes, respectively. [formula] where; T1 =Change in isometric tension of the blood vessel brought about by A II without treatment with a test drug substance (g) T2 =Change in tension found after treatment with a test drug substance (g)
For the molecule `COC(=O)Cc1cnc(-c2ccccc2)n1Cc1ccc([N+](=O)[O-])cc1`, the inhibition at 10 µM worked out at 38%.
Consider `O=C(O)Cc1nc(-c2ccccc2)n(Cc2ccccc2)c1Cl`, for which the inhibition at 10 µM is 10%.
With `NC(=O)Cc1c(Cl)nc(-c2ccccc2)n1Cc1ccccc1`, the inhibition at 10 µM worked out at 20%.
On the same count and under the same terms, under `O=C(O)CCc1c(Cl)nc(-c2ccccc2)n1Cc1ccccc1` stands 13%; under `CN(C)c1ccc(-c2nc(Cl)c(C(N)=O)n2Cc2ccccc2)cc1`, 18%.
Regarding `O=C(O)Cc1c(Cl)nc(-c2ccccc2)n1CCc1ccccc1` [4-chloro-2-phenyl-1-phenethylimidazole-5-acetic acid hydrochloride], the inhibition at 10 µM was determined as 12%.
Same read-out and setting: with `CCCCn1c(-c2ccccc2)nc(Cl)c1CC(=O)O` [1-n-butyl-4-chloro-2-phenylimidazole-5-acetic acid] the figure was 25%.
Turning to `O=C(O)c1c(Cl)nc(-c2ccccc2)n1Cc1ccccc1`, the inhibition at 10 µM was 5%.
Same read-out and setting: with `CN(C)c1ccc(-c2nc(Cl)c(CC(N)=O)n2Cc2ccccc2)cc1` the figure was 10%.
For `COc1ccc(-c2ncc(CC(=O)O)n2Cc2ccccc2)cc1`, the inhibition at 10 µM is 5%.
As to `Cc1ccc(-c2ncc(CC(=O)O)n2Cc2ccccc2)cc1`, the inhibition at 10 µM worked out at 5%.

Still in this test, the particulars now being: Oryctolagus cuniculus, 0.25 h; Concn. of drug substance 10^-6 M; A II 4×10^-9 M; 15 minutes treatment; read-out: Potency of inhibition.
Turning to `CCCCc1nc(Cl)c(CC(N)=O)n1Cc1ccccc1` [1-Benzyl-2-butyl-4-chloroimidazole-5-acetamide], the inhibition at 1 µM was found to be 19%.
Regarding `CCCCc1nc(CC(=O)O)c(Cl)n1Cc1ccccc1Cl`, the inhibition at 1 µM stood at 30%.
Regarding `O=C(O)Cc1nc(C2CCCC2)n(Cc2ccccc2)c1Cl`, the inhibition at 1 µM was 10%.
Turning to `CCCCc1nc(CC(=O)O)c(Cl)n1Cc1ccccc1`, the inhibition at 1 µM stood at 22%.

The values are drawn from patent US4340598A, “Hypotensive imidazole derivatives” (Takeda Chemical Industries, Ltd., priority 1979, dated 1982).
